Read-outs that look alike come from different tables or passages of the source.
What was measured:
[1] = biological target: T1, outer ubiquinone binding site of complex III (IIIQO) (Rattus norvegicus, UniProt P00159+P20788); experiment: High-throughput screen: ROS production from outer ubiquinone binding site of complex III (IIIQO); type: biochemical; conditions: percent change in ROS from DMSO controls
T1 construct: freshly isolated muscle mitochondria were assayed; from tissue; host or cells: rat skeletal muscle mitochondria (Wistar, Harlan Laboratories)

[2] = biological target: T2, succinate dehydrogenase/complex II (SDH) (Rattus norvegicus, UniProt P21913+Q641Z9+Q6PCT8+Q920L2); experiment: High-throughput screen: ROS production from succinate dehydrogenase/complex II (SDH); type: biochemical; conditions: for inhibition at 2.5 µM: Table 7
T2 construct: freshly isolated muscle mitochondria were assayed; from tissue; host or cells: rat skeletal muscle mitochondria (Wistar, Harlan Laboratories)
Description: Skeletal muscle mitochondria were isolated from 5-8 week old female Wistar rats (Harlan Laboratories). Minced muscle was homogenized in buffer containing bacterial protease Type VIII prior to differential centrifugation to separate mitochondria from other tissue components. Unless otherwise stated, freshly isolated muscle mitochondria were assayed in buffer containing 120 mM KCl, 5 mM HEPES, 1 mM EGTA, 0.3% (w/v) bovine serum albumin. Where indicated, CaCl2 was added to yield a final free concentration of 250 nM calcium at pH 7.0 at 37° C.
Just prior to use, plates were brought to room temperature and diluted 300-fold with standard buffer (13.3X=33.3 μM). To monitor the performance of each assay throughout screening and to provide intra-plate normalization reference points, DMSO negative controls and known mitochondrial inhibitor positive controls were included on each Master compound plate.
Total amounts of superoxide and H2O2 production were determined fluorometrically as H2O2, without distinguishing between them, in the presence of exogenous superoxide dismutase (25 units/mL final), horseradish peroxidase (1 unit/mL final), and Amplex UltraRed (25 μM final) as described (Affourtit, C. et al. (2012) Measurement of proton leak and electron leak in isolated mitochondria. Methods Mol. Biol. 810: 165-82). Just prior to use, a bulk 3.3X solution was made in standard buffer and distributed into a 2 mL deep well 96-well transfer plate.
To assess the effects of a compound on ROS production from succinate dehydrogenase/complex II (SDH), Start Solution containing 15 μM palmitoyl carnitine, 2.5 μM antimycin A and 2 μM myxothiazol was distributed into standard 96-well transfer plates. A Biomek FX workstation was programmed to dispense solutions into black 96-well assay plates. Solutions were dispensed to all assay plates in the following order: ROS Detection solution described in Example 3, Mitochondria solution described in Example 1 to a final concentration of 0.3 mg/ml, and Compound dilutions described in Example 2. Duplicate assay plates were made and each was initiated by the addition of 3.3X Start solution containing 15 μM palmitoyl carnitine, 2.5 μM antimycin A and 2 μM myxothiazol. Plates were incubated in the dark at room temperature for 30-40 minutes before acquiring endpoint fluorescence using a Victor 3V plate reader (Perkin Elmer) equipped with 550/590 nm excitation/emission filters.
The fluorescence values in each well were scaled as the percent change from the intra-plate DMSO controls with the appropriate inhibitor positive controls defined as −100%. Following initial scaling, intra-plate normalized values were subjected to Tukey's two-way median polish to remove row and column dependent positional effects (Malo et al., 2006).

[3] = biological target: T3, glycerol-3-phosphate dehydrogenase (GPDH) (Rattus norvegicus, UniProt P35571); experiment: High-throughput screen: ROS production from glycerol-3-phosphate dehydrogenase (GPDH); type: biochemical; design: inhibition: dose or concentration left out as unconfirmed; conditions: for inhibition: Table 7
T3 construct: The activity of GPDH in intact mitochondria (0.3 mg/mL) was measured; from tissue; host or cells: rat skeletal muscle mitochondria (Wistar, Harlan Laboratories)
T3 sequence (P35571 43-727): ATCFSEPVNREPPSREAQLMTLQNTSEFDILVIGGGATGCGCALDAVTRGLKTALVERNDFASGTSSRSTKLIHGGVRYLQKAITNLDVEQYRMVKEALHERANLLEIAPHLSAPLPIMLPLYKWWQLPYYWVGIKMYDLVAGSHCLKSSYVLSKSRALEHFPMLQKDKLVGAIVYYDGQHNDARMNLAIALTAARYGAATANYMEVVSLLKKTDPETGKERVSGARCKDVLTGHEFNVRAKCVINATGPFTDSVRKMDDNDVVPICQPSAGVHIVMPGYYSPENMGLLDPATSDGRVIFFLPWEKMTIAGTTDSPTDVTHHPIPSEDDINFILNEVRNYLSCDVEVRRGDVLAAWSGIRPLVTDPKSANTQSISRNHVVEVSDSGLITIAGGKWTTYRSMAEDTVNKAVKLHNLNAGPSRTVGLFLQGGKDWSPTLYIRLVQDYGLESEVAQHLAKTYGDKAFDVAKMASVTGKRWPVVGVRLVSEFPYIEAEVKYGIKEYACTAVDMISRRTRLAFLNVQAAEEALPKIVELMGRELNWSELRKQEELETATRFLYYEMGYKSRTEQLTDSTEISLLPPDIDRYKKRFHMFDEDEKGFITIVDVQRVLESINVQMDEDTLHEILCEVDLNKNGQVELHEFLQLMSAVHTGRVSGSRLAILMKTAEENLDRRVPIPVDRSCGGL

[4] = test system: ubiquinone binding site of complex I (IQ); experiment: High-throughput screen: ROS production from ubiquinone binding site of complex I (IQ), isolated skeletal muscle mitochondria; type: biochemical, rat; conditions: percent change in ROS from DMSO controls
[5] = test system: mitochondrial membrane potential (ΔΨm); experiment: Membrane potential (ΔΨm) counterscreen with TMRM; conditions: malate, nigericin
[6] = biological target: T4, flavin binding site of complex I (IF) (Rattus norvegicus, UniProt Q5XIH3); experiment: High-throughput screen: ROS production from flavin binding site of complex I (IF); type: biochemical
T4 construct: freshly isolated muscle mitochondria were assayed; from tissue; host or cells: rat skeletal muscle mitochondria (Wistar, Harlan Laboratories)

[7] = percent change in ROS from DMSO controls
[8] = Table 8, percent change in ROS from DMSO controls
[9] = Table 9, percent change in ROS from DMSO controls
[10] = Table 3, 5 mM glutamate, 5 mM malate, 4 μM rotenone, compounds 2.5 μM, percent change from DMSO, positive control −100%, read-out: % Reduction in ROS production (IF)
[11] = Table 7, percent change in ROS from DMSO controls, read-out: IF

T4 sequence (Q5XIH3 21-464 limits assumed, one chain of several): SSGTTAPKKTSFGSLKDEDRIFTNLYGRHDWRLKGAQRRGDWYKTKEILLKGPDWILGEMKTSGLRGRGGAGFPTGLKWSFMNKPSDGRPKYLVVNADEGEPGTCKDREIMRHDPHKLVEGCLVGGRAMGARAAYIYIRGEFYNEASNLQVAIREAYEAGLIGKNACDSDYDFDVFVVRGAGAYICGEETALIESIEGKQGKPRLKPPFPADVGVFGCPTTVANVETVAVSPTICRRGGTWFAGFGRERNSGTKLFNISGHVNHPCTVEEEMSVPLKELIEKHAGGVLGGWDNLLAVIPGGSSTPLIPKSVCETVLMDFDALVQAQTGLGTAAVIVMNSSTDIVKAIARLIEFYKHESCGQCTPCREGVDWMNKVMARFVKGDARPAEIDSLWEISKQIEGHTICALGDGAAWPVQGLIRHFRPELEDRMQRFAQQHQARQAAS
T2 sequence (Q920L2 35-656): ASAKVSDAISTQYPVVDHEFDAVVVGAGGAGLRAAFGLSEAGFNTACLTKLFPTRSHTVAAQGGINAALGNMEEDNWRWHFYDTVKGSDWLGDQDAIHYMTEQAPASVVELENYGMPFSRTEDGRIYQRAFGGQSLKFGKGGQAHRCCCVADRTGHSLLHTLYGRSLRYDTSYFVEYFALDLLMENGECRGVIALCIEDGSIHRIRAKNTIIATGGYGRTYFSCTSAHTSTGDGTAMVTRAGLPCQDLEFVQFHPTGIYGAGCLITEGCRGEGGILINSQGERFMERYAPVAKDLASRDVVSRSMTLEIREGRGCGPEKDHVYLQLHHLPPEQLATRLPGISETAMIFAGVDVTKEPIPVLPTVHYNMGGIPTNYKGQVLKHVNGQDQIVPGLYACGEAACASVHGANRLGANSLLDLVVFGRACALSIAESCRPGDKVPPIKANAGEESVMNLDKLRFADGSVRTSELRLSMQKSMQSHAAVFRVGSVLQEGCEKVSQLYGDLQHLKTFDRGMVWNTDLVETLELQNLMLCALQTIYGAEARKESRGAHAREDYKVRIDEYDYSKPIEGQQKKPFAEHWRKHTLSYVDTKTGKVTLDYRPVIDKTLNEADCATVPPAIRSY
T2 sequence (P21913 31-282): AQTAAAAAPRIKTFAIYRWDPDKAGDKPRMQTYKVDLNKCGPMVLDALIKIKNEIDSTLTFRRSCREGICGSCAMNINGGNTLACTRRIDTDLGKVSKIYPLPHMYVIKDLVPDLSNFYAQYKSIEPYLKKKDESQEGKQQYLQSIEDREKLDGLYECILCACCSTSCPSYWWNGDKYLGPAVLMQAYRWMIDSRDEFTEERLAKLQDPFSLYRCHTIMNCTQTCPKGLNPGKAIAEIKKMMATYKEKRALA
T2 sequence (Q641Z9 30-169 limits assumed): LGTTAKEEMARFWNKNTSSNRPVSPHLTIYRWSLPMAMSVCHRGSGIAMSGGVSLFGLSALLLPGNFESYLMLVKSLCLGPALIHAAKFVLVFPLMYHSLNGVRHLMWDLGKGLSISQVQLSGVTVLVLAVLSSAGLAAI
T2 sequence (Q6PCT8 57-159): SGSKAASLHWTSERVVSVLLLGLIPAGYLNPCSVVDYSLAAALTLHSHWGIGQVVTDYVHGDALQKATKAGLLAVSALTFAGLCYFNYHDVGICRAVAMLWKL

inhibition at 2.5 µM ([1]; Table 7, read-out: IIIQO) [%] | IIIQO ([1]; Table 8) | inhibition at 2.5 µM ([1]; Table 9, read-out: IIIQo) [%] | inhibition at 2.5 µM [2, 7] [%] | SDH [2, 8] | SDH [2, 9] | inhibition [3, 7] [%] | GPDH [3, 8] | GPDH [3, 9] | Structure (SMILES) | IQ ([4]; Table 7) | IQ ([4]; Table 8) | IQ ([4]; Table 9) | ΔΨm ([5]; Table 8, glutamate) | ΔΨm ([5]; Table 9, glutamate) | inhibition at 2.5 µM [6, 10] [%] | inhibition at 2.5 µM [6, 11] [%] | IF [6, 8] | IF [6, 9] | further results
7.5 | −7.5 | 7.5 | 2.7 | −2.7 | −2.7 | 2.5 | −2.5 | −2.5 | CCCN(CCO)Cc1ccc2c(c1)c1ccccc1n2CC [Compound 15] | −0.1 | −0.1 | −0.1 | −0.9 | −0.9 | 27.6 | 27.6 | −27.6 | −27.6 | –
-6.6 | 6.6 | -6.6 | -4.2 | 4.2 | 4.2 | 0.6 | −0.6 | −0.6 | COc1ccccc1/C=C/c1nc(O)nc(O)c1[N+](=O)[O-] [Compound 16] | −5.4 | −5.4 | −5.4 | −0.3 | −0.3 | 26.7 | 26.7 | −26.7 | −26.7 | –
-5.4 | 5.4 | -5.4 | 0.3 | −0.3 | −0.3 | 0.6 | −0.6 | −0.6 | O=C(Nc1ccccc1C(=O)O)c1ccccc1 [Compound 18] | −1.0 | −1.0 | −1.0 | −0.7 | −0.7 | 25.8 | 25.8 | −25.8 | −25.8 | –
-1.2 | 1.2 | -1.2 | 0.7 | −0.7 | −0.7 | 1.7 | −1.7 | −1.7 | O=C(Nc1ccccc1F)[C@@H]1C2C=CC(C2)[C@@H]1C(=O)O (stereo partly drawn) [Compound 20] | 0.2 | 0.2 | 0.2 | −0.3 | −0.3 | 24 | 24 | −24.0 | −24.0 | –

The remaining lines, values behind:

Structure (SMILES) | inhibition at 2.5 µM ([1]; Table 7, read-out: IIIQO) [%] | IIIQO ([1]; Table 8) | inhibition at 2.5 µM ([1]; Table 9, read-out: IIIQo) [%] | inhibition at 2.5 µM [2, 7] [%] | SDH [2, 8] | SDH [2, 9] | inhibition [3, 7] [%] | GPDH [3, 8] | GPDH [3, 9] | IQ ([4]; Table 7) | IQ ([4]; Table 8) | IQ ([4]; Table 9) | ΔΨm ([5]; Table 8, glutamate) | ΔΨm ([5]; Table 9, glutamate) | inhibition at 2.5 µM [6, 10] [%] | inhibition at 2.5 µM [6, 11] [%] | IF [6, 8] | IF [6, 9] | further results
CC1=CC(C)C(C2OCC(CN3CCCCC3)O2)C(C)C1 (stereo not drawn) [Compound 13] | 9 | −9.0 | 9 | 2.8 | −2.8 | −2.8 | 1.2 | −1.2 | −1.2 | 0.1 | 0.1 | 0.1 | −0.5 | −0.5 | 39 | 39 | −39.0 | −39.0 | –
Cc1cc(C)c(OCC(O)CNC(C)(C)CC(C)(C)C)c(C)c1.Cl (stereo not drawn) [Compound 14] | – | −2.9 | – | – | – | – | – | – | – | −4.7 | −4.7 | −4.7 | −0.7 | −0.7 | – | – | – | – | IIIQO ([1]; Table 7): −2.9; IIIQO ([1]; Table 9): −2.9; SDH [2]: −9.6; GPDH [3]: −3.9; % Reduction in ROS production (IF) [6]: −37.7%; IF [6]: −37.7
COc1cccc(/C=C/C(=O)c2c(O)cc(C)oc2=O)c1O [Compound 17] | 6 | −6.0 | 6 | 3.4 | −3.4 | −3.4 | 3.6 | −3.6 | −3.6 | −7.4 | −7.4 | −7.4 | 0.3 | 0.3 | 26 | 26 | −26.0 | −26.0 | –
